{"source": "patent US6605634B2", "about": "(Amgen, Inc., priority 1996, dated 2003)", "data": [{"test_system": "production of tumor necrosis factor (TNF) by monocytes activated with bacterial lipopolysaccharide (LPS)", "test": "Lipopolysaccharide-activated Monocyte TNF Production Assay", "type": "cell-based", "conditions": "Homo sapiens, TNF in culture supernatants by ELISA, read-out: IC50 (concentration of test compounds causing a 50% reduction in TNF production)", "experimental": "Lipopolysaccharide-activated Monocyte TNF Production Assay\nTest compounds were evaluated in vitro for the ability to inhibit the production of tumor necrosis factor (TNF) by monocytes activated with bacterial lipopolysaccharide (LPS). Fresh residual source leukocytes (a byproduct of plateletpheresis) were obtained from the local blood bank and peripheral blood mononuclear cells (PBMCs) were isolated by density gradient centrifugation on Ficol-Paque Plus (Pharmacia). PBMCs were suspended at 2×10^6/ml in DMEM supplemented to contain 2% FCS (10 mM), 0.3 mg/ml glutamate, 100 U/ml penicillin G and […] streptomycin sulfate (complete media). Cells were plated into Falcon flatbottom 96 well culture plates (200 μl/well) and cultured overnight at 37° C. and 6% CO2. Nonadherent cells were removed by washing with 200 μl/well of fresh medium. Wells containing adherent cells (˜70% monocytes) were replenished with 100 μl of fresh medium.\nPreparation of Test Compound Stock Solutions\nTest compounds were dissolved in […]. Compound stock solutions were prepared to an initial concentration of […]. Stocks were diluted initially to 20-200 μM in complete media. Nine two-fold serial dilutions of each compound were then prepared in complete medium.\nTreatment of Cells with Test Compounds and Activation of TNF Production with Lipopolysaccharide\nOne hundred microliters of each test compound dilution were added to microtiter wells containing adherent monocytes and 100 μl complete medium. Monocytes were cultured with test compounds for 60 min at which time 25 μl of complete medium containing 30 ng/ml lipopolysaccharide from E. coli K532 were added to each well. Cells were cultured an additional 4 hrs. Culture supernatants were then removed and TNF present in the supernatants was quantified using an ELISA.\nFlat bottom 96 well Coming High Binding ELISA plates were coated overnight (4° C.) with 150 μL/well of 3 μg/ml murine anti-human TNFa MAb (R&D Systems #MAB210). Wells were then blocked 1 h at room temperature with 200 μL/well of CaCl2-free ELISA buffer supplemented to contain 20 mg/ml BSA (standard ELISA buffer: […], 150 mM NaCl, 2 mM CaCl2, 0.15 mM thimerosal, pH 7.4). Plates were washed and replenished with 100 μl of test supernatants (diluted 1:3) or standards. Standards consisted of eleven 1.5-fold serial dilutions from a stock of 1 ng/ml recombinant human TNF (R&D Systems). Plates were incubated at room temperature for 1 h on orbital shaker (300 rpm), washed and replenished with 100 μl/well of 0.5 jig/ml goat anti-human TNFa (R&D systems #AB-210-NA) biotinylated at a 4:1 ratio. Plates were incubate for 40 min, washed and replenished with 100 μl/well of alkaline phosphatase-conjugated streptavidin (Jackson ImmunoResearch #016-050-084) at 0.02 μg/ml. Plates were incubated 30 min, washed and replenished with 200 μl well of 1 mg/ml of p-nitrophenyl phosphate. After 30 min, plates were read at 405 nm on a Vmax plate reader.\nStandard curve data were fit to a second order polynomial and unknown TNF-a concentrations determined from their OD by solving this equation for concentration. TNF concentrations were then plotted Vs test compound concentration using a second order polynomial. This equation was then used to calculate the concentration of test compounds causing a 50% reduction in TNF production.", "units": {"IC50": "µM"}, "values": [{"smiles": "N[C@@H](CC1CCCCC1)C(=O)Nc1ccc2c(-c3ccncc3)c(-c3ccc(F)cc3)[nH]c2n1", "note": "[Compound 81, 6-(3′-cyclohexyl-1′-oxo-2′-aminopropylamino)-3-(4-pyridyl)-2-(4-fluorophenyl)-7-aza-indole]", "IC50": "< 20"}, {"smiles": "CCC(CC)CNc1ccc2c(-c3ccncc3)c(-c3ccc(F)cc3)[nH]c2n1", "note": "[Compound 153, 6-(2′-ethylbutylamino)-3-(4-pyridyl)-2-(4-fluorophenyl)-7-aza-indole]", "IC50": "< 20"}, {"smiles": "CC(C)(C)OC(=O)NCC(=O)Nc1ccc2c(-c3ccncc3)c(-c3ccc(F)cc3)[nH]c2n1", "note": "[Compound 29, 6-(2′-t-butoxycarbonylamino-1′-oxo-ethylamino)-3-(4-pyridyl)-2-(4-fluorophenyl)-7-aza-indole]", "IC50": "< 20"}, {"smiles": "CS(=O)(=O)Nc1ccc2c(-c3ccncc3)c(-c3ccc(F)cc3)[nH]c2n1", "note": "[Compound 93, 6-(methylsulfonylamino)-3-(4-pyridyl)-2-(4-fluorophenyl)-7-aza-indole]", "IC50": "< 20"}, {"smiles": "CN(C)CC(=O)Nc1ccc2c(-c3ccncc3)c(-c3ccc(F)cc3)[nH]c2n1", "note": "[Compound 103, 6-(2′-Dimethylamino-1′-oxo-ethylamino)-3-(4-pyridyl)-2-(4-fluorophenyl)-7-aza-indole]", "IC50": "< 20"}, {"smiles": "CC(CNc1ccc2c(-c3ccncc3)c(-c3ccc(F)cc3)[nH]c2n1)c1ccccc1", "note": "(racemic) [Compound 147, 6-(2′(R,S)-phenylpropylamino)-3-(4-pyridyl)-2-(4-fluorophenyl)-7-aza-indole]", "IC50": "< 20"}, {"smiles": "Nc1ccc2c(-c3ccncc3)c(-c3ccc(F)cc3)[nH]c2n1", "note": "[Compound 17, 6-Amino-3-(4-pyridyl)-2-(4-fluorophenyl)-7-aza-indole]", "IC50": "< 1"}]}]}
